Measurements published in patent US4496587A, “Inhibition of bacterial toxin release by prostaglandins” (priority 1983, dated 1985).

Tests used:
C. difficile [1] = assay: cytotoxin in filtrates of C. difficile cultures grown in the presence of prostaglandin (Prostaglandin Incubated with C. difficile), titrated on HFF mono-layers; assay type: cell-based; settings: for effectiveness as an antitoxic prostaglandin: by itself, in words; for decrease of the amount of toxin released from C. difficile: assay described in Example 1, pharmacologically practical amount, definition of antitoxic prostaglandin
Description: (§1) Forty-five filtrates of C. difficile cultures grown in the presence of different concentrations of 16,16-dimethyl-PGE2 were assayed for cytotoxin. (ATCC 9689 stands for American Type Culture Collection number 9689, and patients 1, 2, 3, and 4 refer to cultures extracted from various hospital patients.) The first 25 cultures were incubated with the prostaglandin (in the concentrations noted) for 24 hr. These cultures were then filtered and the supernate was submitted for cytotoxicity testing. The remaining 20 cultures were incubated without prostaglandin, filtered and then the prostaglandin was added to each supernate prior to cytotoxicity testing. The cytotoxin assay utilized human skin fibroblasts (HFF) as mono-layers in Costar 24 well-trays. The results are presented as the reciprocal of the cytotoxin dilution (serial 10-fold) causing altered cell morphology for 50% of the cells in the mono-layer. (see Table II.) Thus, 1000 means that a 1:1000 dilution of the filtrate caused an altered cell morphology for 50% of the cells in the mono-layer. Therefore, the higher the number, the more cytotoxin is present.

[2] = by acid in the stomach; cited from earlier work
[3] = test system: Human skin fibroblasts (HFF); assay: attempted protection of HFF from cytotoxins from different sources (altered cell morphology); assay type: cell-based
Description: To determine whether the presence of 16,16-dimethyl-PGE2 might interfere with the cytotoxin assay, several concentrations of cytotoxins were assayed in the presence of various concentrations of a prostaglandin.
The cytotoxins used were from hamster cecum, a filtrate of C. difficile broth culture, and the filtate of human feces from a patient with "antibiotic diarrhea". Serial 10-fold dilutions of the cytotoxins were prepared in BME-3% fbs. (BME 3% fbs is basal medium of Eagle with 3% fetal bovine (BOVINE Serum and antibiotics.))
16,16-Dimethyl-PGE2 (5 mg/ml in absolute ethanol) was used and further diluted in absolute ethanol.
Human skin fibroblasts (HFF) monolayers in wells of Costar trays (24 well) were refed with 0.8 ml BME-3% fbs. 0.1 ml of the various prostaglandin concentrations and absolute ethanol alone were added to the appropriate wells. Separate wells were then treated with (0.1 ml) of the appropriate dilution of each cytotoxin. The trays were incubated at 37° and examined microscopically for evidence of altered cell morphology.
Attempted protection of HFF from cytotoxins from different
sources by 16,16-dimethyl-PGE2. The results are expressed as the
number of cells showing evidence of altered morphology due to
cytotoxin. (0 = no change, +1 = 25% of the cells are rounded,
+ 2 = 50% of the cells are rounded, +3 = 75% of the cells are
rounded, and +4 = 100% of the cells are rounded. Tox =
toxic concentration of prostaglandin.)

C. difficile [4] = assay: cytotoxin assay, prostaglandin added to supernate after incubation of C. difficile (Prostaglandin Added After Incubation), titrated on HFF mono-layers; assay type: cell-based
Description: as §1

SMILES: CCCCC[C@@](C)(O)/C=C/[C@H]1[C@H](O)CC(=O)[C@@H]1C/C=C\CCCC(=O)O [15(R)-15-methyl-PGE2]
- effectiveness as an antitoxic prostaglandin (C. difficile [1]): not highly effective
- conversion in mammalian metabolism [2]: converted by acid in the stomach to 15(S)-15-methyl-PGE2

SMILES: CCCCC[C@](C)(O)/C=C/[C@H]1[C@H](O)CC(=O)[C@@H]1C/C=C\CCCC(=O)O [15(S)-15-methyl-PGE2]
- decrease of the amount of toxin released from C. difficile (C. difficile [1]): at least 90%
- effectiveness as an antitoxic prostaglandin (C. difficile [1]): effective

SMILES: CCCCC(C)(C)[C@@](C)(O)/C=C/[C@H]1[C@H](O)CC(=O)[C@@H]1C/C=C\CCCC(=O)O [15(S)-16,16-trimethyl-PGE2]
- decrease of the amount of toxin released from C. difficile (C. difficile [1]): at least 90%

SMILES: CCCCC(C)(C)[C@H](O)/C=C/[C@H]1[C@H](O)CC(=O)[C@@H]1C/C=C\CCCC(=O)O [16,16-dimethyl-PGE2]
- Cytotoxin Dilution (reciprocal of the cytotoxin dilution causing altered cell morphology for 50% of the cells) (C. difficile [1]; Control, 24 hr, prostaglandin 1 mcg/ml): < 10
- Cytotoxin Dilution (reciprocal of the cytotoxin dilution causing altered cell morphology for 50% of the cells) (C. difficile [1]; Control, 24 hr, prostaglandin 10 mcg/ml): < 10
- Cytotoxin Dilution (reciprocal of the cytotoxin dilution causing altered cell morphology for 50% of the cells) (C. difficile [1]; Control, 24 hr, prostaglandin 50 mcg/ml): < 10
- amount of toxin with increasing amount of prostaglandin (C. difficile [1]; Table II overall): as the amount of prostaglandin increases, the amount of toxin decreases
- decrease of the amount of toxin released from C. difficile (C. difficile [1]): at least 90%
- Cytotoxin Dilution (reciprocal of the cytotoxin dilution causing altered cell morphology for 50% of the cells) (C. difficile [1]; incubated with C. difficile ATCC #9689, 24 hr, prostaglandin 1 mcg/ml): 100-1000
- Cytotoxin Dilution (reciprocal of the cytotoxin dilution causing altered cell morphology for 50% of the cells) (C. difficile [1]; incubated with C. difficile ATCC #9689, 24 hr, prostaglandin 10 mcg/ml): 100
- Cytotoxin Dilution (reciprocal of the cytotoxin dilution causing altered cell morphology for 50% of the cells) (C. difficile [1]; incubated with C. difficile ATCC #9689, 24 hr, prostaglandin 50 mcg/ml): 10
- Cytotoxin Dilution (reciprocal of the cytotoxin dilution causing altered cell morphology for 50% of the cells) (C. difficile [1]; incubated with C. difficile strain Patient 1, 24 hr, prostaglandin 1 mcg/ml): 100-1000
- Cytotoxin Dilution (reciprocal of the cytotoxin dilution causing altered cell morphology for 50% of the cells) (C. difficile [1]; incubated with C. difficile strain Patient 1, 24 hr, prostaglandin 10 mcg/ml): 10
- Cytotoxin Dilution (reciprocal of the cytotoxin dilution causing altered cell morphology for 50% of the cells) (C. difficile [1]; incubated with C. difficile strain Patient 1, 24 hr, prostaglandin 50 mcg/ml): 10
- Cytotoxin Dilution (reciprocal of the cytotoxin dilution causing altered cell morphology for 50% of the cells) (C. difficile [1]; incubated with C. difficile strain Patient 2, 24 hr, prostaglandin 1 mcg/ml): 10-100
- Cytotoxin Dilution (reciprocal of the cytotoxin dilution causing altered cell morphology for 50% of the cells) (C. difficile [1]; incubated with C. difficile strain Patient 2, 24 hr, prostaglandin 10 mcg/ml): 10-100
- Cytotoxin Dilution (reciprocal of the cytotoxin dilution causing altered cell morphology for 50% of the cells) (C. difficile [1]; incubated with C. difficile strain Patient 2, 24 hr, prostaglandin 50 mcg/ml): < 10
- Cytotoxin Dilution (reciprocal of the cytotoxin dilution causing altered cell morphology for 50% of the cells) (C. difficile [1]; incubated with C. difficile strain Patient 3, 24 hr, prostaglandin 1 mcg/ml): < 10
- Cytotoxin Dilution (reciprocal of the cytotoxin dilution causing altered cell morphology for 50% of the cells) (C. difficile [1]; incubated with C. difficile strain Patient 3, 24 hr, prostaglandin 10 mcg/ml): < 10
- Cytotoxin Dilution (reciprocal of the cytotoxin dilution causing altered cell morphology for 50% of the cells) (C. difficile [1]; incubated with C. difficile strain Patient 3, 24 hr, prostaglandin 50 mcg/ml): < 10
- Cytotoxin Dilution (reciprocal of the cytotoxin dilution causing altered cell morphology for 50% of the cells) (C. difficile [1]; incubated with C. difficile strain Patient 4, 24 hr, prostaglandin 1 mcg/ml): 100
- Cytotoxin Dilution (reciprocal of the cytotoxin dilution causing altered cell morphology for 50% of the cells) (C. difficile [1]; incubated with C. difficile strain Patient 4, 24 hr, prostaglandin 10 mcg/ml): 10-100
- Cytotoxin Dilution (reciprocal of the cytotoxin dilution causing altered cell morphology for 50% of the cells) (C. difficile [1]; incubated with C. difficile strain Patient 4, 24 hr, prostaglandin 50 mcg/ml): 10
- cells showing evidence of altered morphology due to cytotoxin ([3]; C. difficile filtrate 1:10, prostaglandin 0.01 mcg/ml): 4
- cells showing evidence of altered morphology due to cytotoxin ([3]; C. difficile filtrate 1:10, prostaglandin 0.1 mcg/ml): 4
- cells showing evidence of altered morphology due to cytotoxin ([3]; C. difficile filtrate 1:10, prostaglandin 1 mcg/ml): 4
- cells showing evidence of altered morphology due to cytotoxin ([3]; C. difficile filtrate 1:10, prostaglandin 10 mcg/ml): 4
- cells showing evidence of altered morphology due to cytotoxin ([3]; C. difficile filtrate 1:100, prostaglandin 0.01 mcg/ml): 4
- cells showing evidence of altered morphology due to cytotoxin ([3]; C. difficile filtrate 1:100, prostaglandin 0.1 mcg/ml): 4
- cells showing evidence of altered morphology due to cytotoxin ([3]; C. difficile filtrate 1:100, prostaglandin 1 mcg/ml): 4
- cells showing evidence of altered morphology due to cytotoxin ([3]; C. difficile filtrate 1:100, prostaglandin 10 mcg/ml): 4
- cells showing evidence of altered morphology due to cytotoxin ([3]; C. difficile filtrate 1:1000, prostaglandin 0.01 mcg/ml): 3
- cells showing evidence of altered morphology due to cytotoxin ([3]; C. difficile filtrate 1:1000, prostaglandin 0.1 mcg/ml): 3
- cells showing evidence of altered morphology due to cytotoxin ([3]; C. difficile filtrate 1:1000, prostaglandin 1 mcg/ml): 3
- cells showing evidence of altered morphology due to cytotoxin ([3]; C. difficile filtrate 1:1000, prostaglandin 10 mcg/ml): 3
- cells showing evidence of altered morphology due to cytotoxin ([3]; Human cytotoxin 1:10, prostaglandin 0.01 mcg/ml): 4
- cells showing evidence of altered morphology due to cytotoxin ([3]; Human cytotoxin 1:10, prostaglandin 0.1 mcg/ml): 4
- cells showing evidence of altered morphology due to cytotoxin ([3]; Human cytotoxin 1:10, prostaglandin 1 mcg/ml): 4
- cells showing evidence of altered morphology due to cytotoxin ([3]; Human cytotoxin 1:10, prostaglandin 10 mcg/ml): 4
- cells showing evidence of altered morphology due to cytotoxin ([3]; Human cytotoxin 1:100, prostaglandin 0.01 mcg/ml): 4
- cells showing evidence of altered morphology due to cytotoxin ([3]; Human cytotoxin 1:100, prostaglandin 0.1 mcg/ml): 4
- cells showing evidence of altered morphology due to cytotoxin ([3]; Human cytotoxin 1:100, prostaglandin 1 mcg/ml): 4
- cells showing evidence of altered morphology due to cytotoxin ([3]; Human cytotoxin 1:100, prostaglandin 10 mcg/ml): 3
- cells showing evidence of altered morphology due to cytotoxin ([3]; Human cytotoxin 1:1000, prostaglandin 0.01 mcg/ml): 1
- cells showing evidence of altered morphology due to cytotoxin ([3]; Human cytotoxin 1:1000, prostaglandin 0.1 mcg/ml): 1
- cells showing evidence of altered morphology due to cytotoxin ([3]; Human cytotoxin 1:1000, prostaglandin 1 mcg/ml): 1
- cells showing evidence of altered morphology due to cytotoxin ([3]; Human cytotoxin 1:1000, prostaglandin 10 mcg/ml): 1
- effect on the interaction of the cytotoxin with the cell ([3]; conclusion from Table III): did not affect the interaction of the cytotoxin with the cell
- protecting fibroblasts from morphological changes due to the action of the cytotoxin ([3]; cytotoxins from three different sources): ineffective
- Cytotoxin Dilution (reciprocal of the cytotoxin dilution causing altered cell morphology for 50% of the cells) (C. difficile [4]; ATCC #9689, prostaglandin 1 mcg/ml): 100-1000
- Cytotoxin Dilution (reciprocal of the cytotoxin dilution causing altered cell morphology for 50% of the cells) (C. difficile [4]; ATCC #9689, prostaglandin 10 mcg/ml): 10-100
- Cytotoxin Dilution (reciprocal of the cytotoxin dilution causing altered cell morphology for 50% of the cells) (C. difficile [4]; ATCC #9689, prostaglandin 50 mcg/ml): 10
- Cytotoxin Dilution (reciprocal of the cytotoxin dilution causing altered cell morphology for 50% of the cells) (C. difficile [4]; Patient 1, prostaglandin 1 mcg/ml): 1000
- Cytotoxin Dilution (reciprocal of the cytotoxin dilution causing altered cell morphology for 50% of the cells) (C. difficile [4]; Patient 1, prostaglandin 10 mcg/ml): < 100
- Cytotoxin Dilution (reciprocal of the cytotoxin dilution causing altered cell morphology for 50% of the cells) (C. difficile [4]; Patient 1, prostaglandin 50 mcg/ml): 100
- Cytotoxin Dilution (reciprocal of the cytotoxin dilution causing altered cell morphology for 50% of the cells) (C. difficile [4]; Patient 2, prostaglandin 1 mcg/ml): 10
- Cytotoxin Dilution (reciprocal of the cytotoxin dilution causing altered cell morphology for 50% of the cells) (C. difficile [4]; Patient 2, prostaglandin 10 mcg/ml): 10
- Cytotoxin Dilution (reciprocal of the cytotoxin dilution causing altered cell morphology for 50% of the cells) (C. difficile [4]; Patient 2, prostaglandin 50 mcg/ml): < 10
- Cytotoxin Dilution (reciprocal of the cytotoxin dilution causing altered cell morphology for 50% of the cells) (C. difficile [4]; Patient 3, prostaglandin 1 mcg/ml): < 10
- Cytotoxin Dilution (reciprocal of the cytotoxin dilution causing altered cell morphology for 50% of the cells) (C. difficile [4]; Patient 3, prostaglandin 10 mcg/ml): < 10
- Cytotoxin Dilution (reciprocal of the cytotoxin dilution causing altered cell morphology for 50% of the cells) (C. difficile [4]; Patient 4, prostaglandin 1 mcg/ml): 100-1000
- Cytotoxin Dilution (reciprocal of the cytotoxin dilution causing altered cell morphology for 50% of the cells) (C. difficile [4]; Patient 4, prostaglandin 10 mcg/ml): 100
- Cytotoxin Dilution (reciprocal of the cytotoxin dilution causing altered cell morphology for 50% of the cells) (C. difficile [4]; Patient 4, prostaglandin 50 mcg/ml): 10-100
